The values that follow are results of earlier work, collected in publication PMC12216204 (Scientific Reports, 2025).

The test system of data set [1] is orthotopic MDA-MB-231 (TNBC) tumors.

On to WXEAAYQkFL (head to tail) [cy18-4], for which the proteolytic stability result is recorded as “proteolytically stable”. Also, the “uptake by the non-cancerous cells” value in the data set on non-cancerous cells is listed as “minimal uptake”. In addition, in data set [1], the “accumulation in mice bearing orthotopic MDA-MB-231 (TNBC) tumors” value is listed as “accumulated primarily at the tumor site”.
Take WXEAAYQRFL [compound 18]: the proteolytic stability result is on record as “not proteolytically stable”.
